Data taken from patent US8288410B2, “3-substituted quinolinium and 7H-indolo[2,3-c]quinolinium salts as new antiinfectives” (Florida Agricultural and Mechanical University, priority 2008, dated 2012).
Like-named read-outs stand apart in the source and are kept apart here. Each block holds one molecule with its values, some of them ahead of it.

Legend:
[1] = test system: MRSA; assay: Antibacterial susceptibility testing, MRSA; format: cell-based, methicillin resistant Staphylococcus aureus; settings: for MRSA IC50 / MRSA MFC / MRSA MIC: Table 2; for MRS IC50 / MRS MFC / MRS MIC: Table 1
Protocol: (§1) Using standard susceptibility tests, the compounds of the invention were determined to be active against MRSA, C. neoformans and several other bacteria, fungi and protozoa. More specifically, the antibacterial and antifungal testing was carried out in the following manner. Cryptococcus neoformans ATCC 90113 and MRSA were obtained from the American Type Culture Collection (Manassas. Va.). Several others including Candida albicans ATTC 90028, Aspergillus fumigatus ATCC 90906 and Mycobacterium intracellulare (M. intracellulare) ATCC 23086 were also procured. Susceptibility testing was performed using a modified version of the National Committee for Clinical Laboratory Standards method. M. intracellulare was tested using a modified method of Franzblau, et al., J. Clin. Microbiol., 1998, 36, 362-366. DMSO solutions of samples were serially diluted in saline, and transferred in duplicate to 96 well microplates. Microbial suspensions were diluted in the broth to afford desired colony forming units/mL according to the 0.5 McFarland Standard [C. Albicans: either Saboraud Dextrose broth (SDB) or RPMI 1640, C. neoformans: SDB, A fumigatus: either YM broth (for MICS) or RPMI-1640+5% Alamar Blue.] After adding microbial cultures to the sampled afforded a final volume of 200 μL and final test concentration starting with 20 μg/mL, plates were read prior to and after final incubation using either fluorescence at 544ex/590em (M intracellulare, A. fumigatus) using the Polarstar galaxy reader (Biotek Instruments, Vermont). Growth (saline only), solvent and blank (media only) controls were included on each test plate. Drug controls [Ciprofloxacin (ICN Biomedicals, Ohio) for bacteria and Amphotericin B (ICN Biomedicals, Ohio) for fungi] were included in each assay. Percent growth was calculated and plotted versus test concentration to afford IC50 (sample concentration that affords 50% inhibition or growth of the organism). The minimum inhibitory concentration (MIC) was determined by visually inspecting the plate, and is defined as the lowest test concentration that allows no detectable growth (for Almar Blue assays, no color change from blue to pink).

[2] = test system: Candida albicans ATTC 90028; assay: Antifungal susceptibility testing, Candida albicans; format: cell-based
Protocol: as §1

[3] = test system: Cryptococcus neoformans ATCC 90113; assay: Antifungal susceptibility testing, Cryptococcus neoformans; format: cell-based
Protocol: as §1

[4] = test system: Aspergillus fumigatus ATCC 90906; assay: Antifungal susceptibility testing, Aspergillus fumigatus; format: cell-based
Protocol: as §1

Structure (SMILES): C[n+]1cc(Nc2ccccc2Cl)cc2ccccc21.[I-] [JRE-2-42-1]
- MRSA IC50 [1]: — ((-) = >20 μg/mL)
- MRSA MFC [1]: — ((-) = >20 μg/mL)
- MRSA MIC [1]: — ((-) = >20 μg/mL)
- Ca IC50 ([2]; Table 2): — ((-) = >20 μg/mL)
- Ca MFC ([2]; Table 2): — ((-) = >20 μg/mL)
- Ca MIC ([2]; Table 2): — ((-) = >20 μg/mL)
- Cn IC50 ([3]; Table 2): — ((-) = >20 μg/mL)
- Cn MFC ([3]; Table 2): — ((-) = >20 μg/mL)
- Cn MIC ([3]; Table 2): — ((-) = >20 μg/mL)
- A fu IC50 ([4]; Table 2, Aspergillus fumigatus): — ((-) = >20 μg/mL)

Structure (SMILES): C[n+]1cc(Nc2cccc(Cl)c2)cc2ccccc21.[I-] [JRE-2-81-1]
- MRSA IC50 [1]: — ((-) = >20 μg/mL)
- MRSA MFC [1]: — ((-) = >20 μg/mL)
- MRSA MIC [1]: — ((-) = >20 μg/mL)
- Ca IC50 ([2]; Table 2): — ((-) = >20 μg/mL)
- Ca MFC ([2]; Table 2): — ((-) = >20 μg/mL)
- Ca MIC ([2]; Table 2): — ((-) = >20 μg/mL)
- Cn IC50 ([3]; Table 2): — ((-) = >20 μg/mL)
- Cn MFC ([3]; Table 2): — ((-) = >20 μg/mL)
- Cn MIC ([3]; Table 2): — ((-) = >20 μg/mL)
- A fu IC50 ([4]; Table 2, Aspergillus fumigatus): — ((-) = >20 μg/mL)

- IC50 ([1]; Staphylococcus aureus, Table 2, read-out: MRSA IC50): 0.85 mg/L
- MIC ([1]; Staphylococcus aureus, Table 2, read-out: MRSA MIC): 1.6 mg/L
- IC50 ([2]; ATTC90028, Table 2, read-out: Ca IC50): 1 mg/L
- MIC ([2]; ATTC90028, Table 2, read-out: Ca MIC): 3.1 mg/L
- IC50 ([3]; ATCC90113, Table 2, read-out: Cn IC50): 0.55 mg/L
- MIC ([3]; ATCC90113, Table 2, read-out: Cn MIC): 0.78 mg/L
- A fu MFC [4]: 25 mg/L
- A fu MIC [4]: 1.6 mg/L
- IC50 ([4]; ATCC90906, Table 2, Aspergillus fumigatus, read-out: A fu IC50): 1 mg/L
Structure (SMILES): c1ccc(Nc2cc3ccccc3[n+](CCCCCC3CCCCC3)c2)cc1 [JRE-3-19-1]
- MFC ([1]; Staphylococcus aureus, Table 2, read-out: MRSA MFC): 6.3 mg/L
- MFC ([2]; ATTC90028, Table 2, read-out: Ca MFC): 13 mg/L
- MFC ([3]; ATCC90113, Table 2, read-out: Cn MFC): 6.3 mg/L

Structure (SMILES): COc1ccc(Nc2cc3ccccc3[n+](CCCCCC3CCCCC3)c2)cc1.[I-] [JRE-3-45-1]
- MRSA IC50 [1]: — ((-) = >20 μg/mL)
- MRSA MFC [1]: — ((-) = >20 μg/mL)
- MRSA MIC [1]: — ((-) = >20 μg/mL)
- Ca IC50 ([2]; Table 2): — ((-) = >20 μg/mL)
- Ca MFC ([2]; Table 2): — ((-) = >20 μg/mL)
- Ca MIC ([2]; Table 2): — ((-) = >20 μg/mL)
- Cn IC50 ([3]; Table 2): — ((-) = >20 μg/mL)
- Cn MFC ([3]; Table 2): — ((-) = >20 μg/mL)
- Cn MIC ([3]; Table 2): — ((-) = >20 μg/mL)
- A fu IC50 ([4]; Table 2, Aspergillus fumigatus): — ((-) = >20 μg/mL)

Structure (SMILES): C[n+]1cc(Sc2ccccc2)cc2ccccc21.[I-] [XYZ-III-53]
- MRS IC50 [1]: — ((-) = >20 μg/mL)
- MRS MFC [1]: — ((-) = >20 μg/mL)
- MRS MIC [1]: — ((-) = >20 μg/mL)
- Ca IC50 ([2]; Table 1): — ((-) = >20 μg/mL)
- Ca MFC ([2]; Table 1): — ((-) = >20 μg/mL)
- Ca MIC ([2]; Table 1): — ((-) = >20 μg/mL)
- Cn IC50 ([3]; Table 1): — ((-) = >20 μg/mL)
- Cn MFC ([3]; Table 1): — ((-) = >20 μg/mL)
- Cn MIC ([3]; Table 1): — ((-) = >20 μg/mL)
- A fu IC50 ([4]; Table 1, Aspergillus fumigatus): — ((-) = >20 μg/mL)
- A fu MFC ([4]; Table 1, Aspergillus fumigatus): — ((-) = >20 μg/mL)
- A fu MIC ([4]; Table 1, Aspergillus fumigatus): — ((-) = >20 μg/mL)

Structure (SMILES): [I-].c1ccc(CCCCC[n+]2cc(Sc3ccccc3)cc3ccccc32)cc1 [XYZ-III-54]
- MRS IC50 [1]: 1.0 mg/L
- MRS MFC [1]: 10 mg/L
- MRS MIC [1]: 2.5 mg/L
- Ca IC50 ([2]; Table 1): 5.5 mg/L
- Ca MFC ([2]; Table 1): — ((-) = >20 μg/mL)
- Ca MIC ([2]; Table 1): 10 mg/L
- Cn MFC ([3]; Table 1): 10 mg/L
- Cn MIC ([3]; Table 1): 5.0 mg/L
- A fu IC50 ([4]; Table 1, Aspergillus fumigatus): 1.3 mg/L
- A fu MFC ([4]; Table 1, Aspergillus fumigatus): — ((-) = >20 μg/mL)

Structure (SMILES): C[n+]1cc(Sc2ccc(F)cc2)cc2ccccc21.[I-] [XYZ-III-62]
- MRS IC50 [1]: — ((-) = >20 μg/mL)
- MRS MFC [1]: — ((-) = >20 μg/mL)
- MRS MIC [1]: — ((-) = >20 μg/mL)
- Ca IC50 ([2]; Table 1): — ((-) = >20 μg/mL)
- Ca MFC ([2]; Table 1): — ((-) = >20 μg/mL)
- Ca MIC ([2]; Table 1): — ((-) = >20 μg/mL)
- Cn IC50 ([3]; Table 1): — ((-) = >20 μg/mL)
- Cn MFC ([3]; Table 1): — ((-) = >20 μg/mL)
- Cn MIC ([3]; Table 1): — ((-) = >20 μg/mL)
- A fu IC50 ([4]; Table 1, Aspergillus fumigatus): — ((-) = >20 μg/mL)
- A fu MFC ([4]; Table 1, Aspergillus fumigatus): — ((-) = >20 μg/mL)
- A fu MIC ([4]; Table 1, Aspergillus fumigatus): — ((-) = >20 μg/mL)

Structure (SMILES): Fc1ccc(Sc2cc3ccccc3[n+](CCCCCc3ccccc3)c2)cc1.[I-] [XYZ-III-63]
- MRS IC50 [1]: 5.5 mg/L
- MRS MFC [1]: — ((-) = >20 μg/mL)
- MRS MIC [1]: 10 mg/L
- Ca IC50 ([2]; Table 1): 20 mg/L
- Ca MFC ([2]; Table 1): — ((-) = >20 μg/mL)
- Ca MIC ([2]; Table 1): — ((-) = >20 μg/mL)
- Cn IC50 ([3]; Table 1): 7.0 mg/L
- Cn MFC ([3]; Table 1): — ((-) = >20 μg/mL)
- Cn MIC ([3]; Table 1): — ((-) = >20 μg/mL)
- A fu MFC ([4]; Table 1, Aspergillus fumigatus): — ((-) = >20 μg/mL)
